Source: PMC7928338, “Distribution of Glyphosate-Resistance in Echinochloa crus-galli Across Agriculture Areas in the Iberian Peninsula” (Frontiers in Plant Science, 2021)
Read-outs that look alike come from different tables or passages of the source.

Experiments:
[1] = system: T1, 5-enolpyruvylshikimate-3-phosphate synthase (EPSPS), glyphosate-susceptible populations; test: EPSPS activity in leaf extract, inorganic phosphate release; format: biochemical, Echinochloa crus-galli; details: population E2 (susceptible); glyphosate 0-1000 μM; read-out: I50
T1 construct: native enzyme in leaf extract; hexaploid species, homoeologous EPSPS copies not distinguished

[2] = system: 5-enolpyruvylshikimate-3-phosphate synthase (EPSPS), glyphosate-resistant (R) and very resistant (VR) populations; details: read-out: I50, glyphosate 0-1000 μM, stated gain
Source text: EPSPS activity in leaf extract, inorganic phosphate release on 5-enolpyruvylshikimate-3-phosphate synthase (EPSPS), glyphosate-resistant (R) and very resistant (VR) populations

With `O=C(O)CNCP(=O)(O)O` [glyphosate] the IC50 [1] was 0.8 µM, the IC50 ([2]; population E7) was 11.7 µM and the IC50 ([2]; population E9) was 18.1 µM. For the same compound, the IC50 ([2]; population E10, possible EPSPS overexpression) was 54.8 µM and the IC50 ([2]; population E12, possible EPSPS overexpression) was 45.6 µM.
